{"source": "patent US20100298141A1", "about": "“SUBSTITUTED PYRIDINE N-OXIDE HERBICIDES” (E. I. DU PONT DE NEMOURS AND COMPANY, priority 2007, published 2010)", "key": {"barnyardgrass [1]": {"test_system": "barnyardgrass", "assay": "Test C flooded paddy test", "format": "in vivo, Echinochloa crus-galli", "settings": "Flood", "method_in_brief": "(§1)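 Compound was added to standing water 3 cm above soil, flood maintained, and plants held in a greenhouse before visual scoring against controls at 13 to 15 days.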"}, "morningglory": {"test_system": "morningglory", "assay": "Test A pre-/postemergence greenhouse test", "format": "in vivo, Ipomoea spp.", "settings": "for Plant response rating, Morningglory: 0 to 100 scale where 0 is no effect and 100 is complete control; for Morningglory plant response rating: 0 to 100 scale", "method_in_brief": "(§2)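 Planting was into mixed loam soil and sand; preemergence treatment followed as a directed soil spray. Concurrently, emerged plants (one- to two-leaf, 2–10 cm) received postemergence applications of identically formulated compound (non-phytotoxic solvent, surfactant). After approximately ten days under greenhouse conditions, injury was judged by eye against untreated plants.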"}, "redroot pigweed": {"test_system": "redroot pigweed", "assay": "Test A pre-/postemergence greenhouse test", "format": "in vivo, Amaranthus retroflexus", "settings": "for Plant response rating, Pigweed: 0 to 100 scale where 0 is no effect and 100 is complete control; for Pigweed plant response rating: 0 to 100 scale", "method_in_brief": "as §2"}, "umbrella sedge": {"test_system": "umbrella sedge", "assay": "Test C flooded paddy test", "format": "in vivo, Cyperus difformis", "settings": "Flood", "method_in_brief": "as §1"}, "barnyardgrass [2]": {"test_system": "barnyardgrass", "assay": "Test A pre-/postemergence greenhouse test", "format": "in vivo, Echinochloa crus-galli", "settings": "for Plant response rating, Barnyardgrass: 0 to 100 scale where 0 is no effect and 100 is complete control; for Barnyardgrass plant response rating: 0 to 100 scale", "method_in_brief": "as §2"}, "corn": {"test_system": "corn", "assay": "Test A pre-/postemergence greenhouse test", "format": "in vivo, Zea mays", "settings": "for Plant response rating, Corn: 0 to 100 scale where 0 is no effect and 100 is complete control; for Corn plant response rating: 0 to 100 scale", "method_in_brief": "as §2"}, "rice": {"test_system": "rice", "assay": "Test C flooded paddy test", "format": "in vivo, Oryza sativa", "settings": "Flood", "method_in_brief": "as §1"}, "wheat": {"test_system": "wheat", "assay": "Test A pre-/postemergence greenhouse test", "format": "in vivo, Triticum aestivum", "settings": "for Plant response rating, Wheat: 0 to 100 scale where 0 is no effect and 100 is complete control; for Wheat plant response rating: 0 to 100 scale", "method_in_brief": "as §2"}, "velvetleaf": {"test_system": "velvetleaf", "assay": "Test A pre-/postemergence greenhouse test", "format": "in vivo, Abutilon theophrasti", "settings": "for Plant response rating, Velvetleaf: 0 to 100 scale where 0 is no effect and 100 is complete control; for Velvetleaf plant response rating: 0 to 100 scale", "method_in_brief": "as §2"}, "duck salad": {"test_system": "duck salad", "assay": "Test C flooded paddy test", "format": "in vivo, Heteranthera limosa", "settings": "Flood", "method_in_brief": "as §1"}, "giant foxtail": {"test_system": "giant foxtail", "assay": "Test A pre-/postemergence greenhouse test", "format": "in vivo, Setaria faberi", "settings": "for Plant response rating, Foxtail, Giant: 0 to 100 scale where 0 is no effect and 100 is complete control; for Foxtail, Giant plant response rating: 0 to 100 scale", "method_in_brief": "as §2"}, "crabgrass": {"test_system": "crabgrass", "assay": "Test A pre-/postemergence greenhouse test", "format": "in vivo, Digitaria sanguinalis", "settings": "for Plant response rating, Crabgrass, Large: 0 to 100 scale where 0 is no effect and 100 is complete control; for Crabgrass, Large plant response rating: 0 to 100 scale", "method_in_brief": "as §2"}, "[3]": {"settings": "62 g ai/ha, scale 0 to 100 (0 no effect, 100 complete control)"}, "[4]": {"settings": "250 g ai/ha, scale 0 to 100, 0 no effect, 100 complete control, 13 to 15 days"}, "[5]": {"settings": "Postemergence, 500 g ai/ha, 0 is no effect, 100 is complete control"}, "[6]": {"settings": "Preemergence, 125 g ai/ha, 0 no effect, 100 complete control"}}, "data": [{"smiles": "Cn1nc(OC(F)F)c(C[S+]([O-])c2cccc[n+]2[O-])c1C(F)(F)F", "note": "(stereo not shown) [Compound 74]", "values": [{"measurement": "Plant response rating, Barnyardgrass", "setting": "barnyardgrass [1]; [3]", "result": 15}, {"measurement": "Plant response rating, Barnyardgrass", "setting": "barnyardgrass [1]; [4]", "result": 30}, {"measurement": "Plant response rating, Morningglory", "setting": "morningglory; Postemergence, 125 g ai/ha", "result": 40}, {"measurement": "Morningglory plant response rating", "setting": "morningglory; [5]", "result": 80}, {"measurement": "Morningglory plant response rating", "setting": "morningglory; [6]", "result": 20}, {"measurement": "Plant response rating, Morningglory", "setting": "morningglory; Preemergence, 500 g ai/ha", "result": 90}, {"measurement": "Plant response rating, Pigweed", "setting": "redroot pigweed; Postemergence, 125 g ai/ha", "result": 50}, {"measurement": "Pigweed plant response rating", "setting": "redroot pigweed; [5]", "result": 60}, {"measurement": "Pigweed plant response rating", "setting": "redroot pigweed; [6]", "result": 60}, {"measurement": "Plant response rating, Pigweed", "setting": "redroot pigweed; Preemergence, 500 g ai/ha", "result": 70}, {"measurement": "Plant response rating, Sedge, Umbrella", "setting": "umbrella sedge; [3]", "result": 0}, {"measurement": "Plant response rating, Sedge, Umbrella", "setting": "umbrella sedge; [4]", "result": 50}, {"measurement": "Plant response rating, Barnyardgrass", "setting": "barnyardgrass [2]; Postemergence, 125 g ai/ha", "result": 50}, {"measurement": "Barnyardgrass plant response rating", "setting": "barnyardgrass [2]; [5]", "result": 80}, {"measurement": "Barnyardgrass plant response rating", "setting": "barnyardgrass [2]; [6]", "result": 70}, {"measurement": "Plant response rating, Barnyardgrass", "setting": "barnyardgrass [2]; Preemergence, 500 g ai/ha", "result": 90}, {"measurement": "Plant response rating, Corn", "setting": "corn; Postemergence, 125 g ai/ha", "result": 0}, {"measurement": "Corn plant response rating", "setting": "corn; [5]", "result": 60}, {"measurement": "Corn plant response rating", "setting": "corn; [6]", "result": 0}, {"measurement": "Plant response rating, Corn", "setting": "corn; Preemergence, 500 g ai/ha", "result": 80}, {"measurement": "Plant response rating, Rice", "setting": "rice; [3]", "result": 10}, {"measurement": "Plant response rating, Rice", "setting": "rice; [4]", "result": 10}, {"measurement": "Plant response rating, Wheat", "setting": "wheat; Postemergence, 125 g ai/ha", "result": 20}, {"measurement": "Wheat plant response rating", "setting": "wheat; [5]", "result": 60}, {"measurement": "Wheat plant response rating", "setting": "wheat; [6]", "result": 0}, {"measurement": "Plant response rating, Wheat", "setting": "wheat; Preemergence, 500 g ai/ha", "result": 90}, {"measurement": "Plant response rating, Velvetleaf", "setting": "velvetleaf; Postemergence, 125 g ai/ha", "result": 20}, {"measurement": "Velvetleaf plant response rating", "setting": "velvetleaf; [5]", "result": 70}, {"measurement": "Velvetleaf plant response rating", "setting": "velvetleaf; [6]", "result": 0}, {"measurement": "Plant response rating, Velvetleaf", "setting": "velvetleaf; Preemergence, 500 g ai/ha", "result": 60}, {"measurement": "Plant response rating, Ducksalad", "setting": "duck salad; [3]", "result": 70}, {"measurement": "Plant response rating, Ducksalad", "setting": "duck salad; [4]", "result": 65}, {"measurement": "Plant response rating, Foxtail, Giant", "setting": "giant foxtail; Postemergence, 125 g ai/ha", "result": 60}, {"measurement": "Foxtail, Giant plant response rating", "setting": "giant foxtail; [5]", "result": 90}, {"measurement": "Foxtail, Giant plant response rating", "setting": "giant foxtail; [6]", "result": 80}, {"measurement": "Plant response rating, Foxtail, Giant", "setting": "giant foxtail; Preemergence, 500 g ai/ha", "result": 90}, {"measurement": "Plant response rating, Crabgrass, Large", "setting": "crabgrass; Postemergence, 125 g ai/ha", "result": 40}, {"measurement": "Crabgrass, Large plant response rating", "setting": "crabgrass; [5]", "result": 80}, {"measurement": "Crabgrass, Large plant response rating", "setting": "crabgrass; [6]", "result": 60}, {"measurement": "Plant response rating, Crabgrass, Large", "setting": "crabgrass; Preemergence, 500 g ai/ha", "result": 90}]}]}
